Key:
[1] = tested on: human SMN1 minigene full length and Δ7 mRNA (SMN1-A); experiment: Human SMN1 minigene mRNA end-point semi-quantitative RT-PCR splicing assay in cultured cells; assay type: cell-based; conditions: HEK293H cells transfected with SMN1-A minigene, increasing concentrations, 7 hours, agarose gel (FIG. 10)
Source text: The RT-PCR assay is used to visualize and quantify the levels of the human SMN1 minigene full length and Δ7 mRNA in primary cells and cell lines expressing the human SMN1 minigene construct treated with a test compound.
Using the procedure for the preparation of the SMN2 minigene construct described in Biological Example 1, the SMN1 version of the minigene is generated by replacing the sixth nucleotide of exon 7 (a thymine residue) of the SMN2-A minigene construct to cytosine using site-directed mutagenesis. Thus, similar to the SMN2-A minigene construct, the SMN1 minigene construct has a single adenine residue inserted after nucleic residue 48 of exon 7. The SMN1 minigene construct is referred to as SMN1-A.
HEK293H cells (10,000 cells/well/199 μL) were transfected, using FuGENE-6 reagent, in a 96-well plate with 15 ng of the SMN1-A minigene reporter plasmid per well. Cells were incubated for 24 hours following transfection. Test compounds were serially diluted 3.16-fold in 100% DMSO to generate a 7-point concentration curve. A solution of test compound (1 μL, 200× in DMSO) was added to each test well. 1 μL DMSO was added to each control well. The plate was incubated for 7 hours in a cell culture incubator (37° C., 5% CO2, 100% relative humidity). The cells were then lysed in Cells-To-Ct lysis buffer and the lysates were stored at −80° C.
Two SMN spliced mRNA are generated from the SMN1 minigene. The term “SMN1 minigene FL” refers to the first spliced product containing exon 7, corresponding to full length SMN1 mRNA. The term “SMN1 minigene A7” refers to the second product lacking exon 7.
SMN1 minigene FL and SMN1 minigene Δ7 mRNA are amplified using the primers in Table 11. Primer SMN Forward C (SEQ ID NO. 11) hybridizes to a nucleotide sequence in exon 6 (nucleotide 43 to nucleotide 63), primer SMN Reverse A (SEQ ID NO. 2) hybridizes to a nucleotide sequence in the coding sequence of Firefly luciferase. The combination of these two oligonucleotides detects only SMN1 or SMN2 minigenes (RT-PCR) and will not detect endogenous SMN1 or SMN2 genes. Since the HEK293H cells used in Example 16 were transfected with only the human SMN1 minigene, RT-PCR can visualize and quantify only SMN1 minigene FL and SMN1 minigene Δ7 mRNA.
To synthesize cDNA, 5 μL of lysate, 4 μL of 5× iScript reaction mix, 1 μL of reverse transcriptase, and 10 μL of water are combined and incubated 5 min at 25° C. followed by 30 min at 42° C., followed by 5 min at 85° C. The cDNA solution is stored at −20° C.
To perform endpoint PCR, 5 μL of cDNA, 0.2 μL of 100 μM forward primer, 0.2 μL of 100 μM reverse primer, and 22.5 μL of polymerase super mix are combined in a 96 well semiskirted PCR plate. PCR is carried out at the following temperatures for the indicated time: Step 1: 94° C. (2 min), Step 2: 94° C. […]

Smn protein = Smn protein assay (HTRF) in cultured cells (SMA patient fibroblasts GM03813); assay type: cell-based, human; conditions: for Smn protein expression: SMA Type 1 patient fibroblast cells, 48 hour, SMN HTRF assay (FIG. 6); for EC1.5x for Smn protein expression: SMA patient fibroblast cells (GM03813), HTRF, 7-point concentration data, concentration producing 1.5 times Smn protein vs DMSO vehicle control; for EC1.5x for Smn protein expression / maximum fold (Fold) increase of Smn protein: 48 hours; for maximum fold (Fold) increase of Smn protein: SMA patient fibroblast cells, 7-point concentration curve, relative to vehicle control
Method in brief: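 SMA patient fibroblasts (GM03813) were treated 48 h at 37° C with a 7-point, 3.16-fold compound series in triplicate, then lysed in RIPA. Smn was read by HTRF (anti-SMN d2/kryptate, 665/620 nm ratio). ΔF versus blank was divided by vehicle ΔF to give fold Smn increase.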

In the case of `CN1CCN(c2ccc3cc(-c4nc5c(Cl)cccc5s4)c(=O)oc3n2)CC1` [Cpd 5, 3-(4-chloro-1,3-benzothiazol-2-yl)-7-(4-methylpiperazin-1-yl)-2H-pyrano[2,3-b]pyridin-2-one], the “SMN1 minigene FL mRNA (gel band)” value [1] is reported as “progressively more SMN1 minigene FL mRNA”, the “SMN1 minigene Δ7 mRNA (gel band)” value [1] is reported as “less SMN1 minigene Δ7 mRNA” and the Smn protein expression (Smn protein) is reported as “dose dependent increase in Smn protein expression”. For the same compound, the “EC1.5x for Smn protein expression” value (Smn protein) was “*** (an EC1.5× between >0.3 μM and ≦1 μM is indicated by three stars (***))”, the “maximum fold (Fold) increase of Smn protein” value (Smn protein) was “**** (a fold increase between >1.5 and ≦1.65 is indicated by four stars (****))” and the melting point was 258 to 260 °C.
In the case of `Cc1ccc2nc(-c3cc4ccc(N5CCN(C)CC5)nc4oc3=O)cn2c1` [Cpd 27, 3-(6-methylimidazo[1,2-a]pyridin-2-yl)-7-(4-methylpiperazin-1-yl)-2H-pyrano[2,3-b]pyridin-2-one], the “SMN1 minigene FL mRNA (gel band)” value [1] is reported as “progressively more SMN1 minigene FL mRNA”, the “SMN1 minigene Δ7 mRNA (gel band)” value [1] is reported as “less SMN1 minigene Δ7 mRNA” and the Smn protein expression (Smn protein) is reported as “dose dependent increase in Smn protein expression”. The “EC1.5x for Smn protein expression” value (Smn protein) was “** (an EC1.5× between >1 and ≦3 μM is indicated by two stars (**))”, the “maximum fold (Fold) increase of Smn protein” value (Smn protein) was “**** (a fold increase between >1.5 and ≦1.65 is indicated by four stars (****))” and the melting point was 260 to 264 °C.
